Results taken from PubChem BioAssay (NCI).
Values joined by “and” are separate entries in the source; they are usually repeats but may differ in a detail not shown here. Equal values may be shown once.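 Step 1: Grow cells in 96-well plates. Step 2: Expose to compound for 48 hours at 5 concentrations. Step 3: Interpolate endpoints linearly; if unreached, use highest concentration. GI50 marks 50% less growth. The concentration for full growth arrest is given as TGI.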

Tests used:
Experiment in all cases: inhibition of tumour cell growth, NCI panel, 48 h
HOP-62 NSCLC = tested on: HOP-62 NSCLC
OVCAR-5 ovarian = tested on: OVCAR-5 ovarian
UACC-62 melanoma = tested on: UACC-62 melanoma
SN12C renal = tested on: SN12C renal
SK-MEL-2 melanoma = tested on: SK-MEL-2 melanoma
UACC-257 melanoma = tested on: UACC-257 melanoma
SNB-19 CNS = tested on: SNB-19 CNS
CCRF-CEM leukemia = tested on: CCRF-CEM leukemia
HCC-2998 colon = tested on: HCC-2998 colon
OVCAR-3 ovarian = tested on: OVCAR-3 ovarian
RPMI-8226 leukemia = tested on: RPMI-8226 leukemia
PC-3 prostate = tested on: PC-3 prostate
SF-539 CNS = tested on: SF-539 CNS
HT29 colon = tested on: HT29 colon
T-47D breast = tested on: T-47D breast
EKVX NSCLC = tested on: EKVX NSCLC
NCI-H23 lung = tested on: NCI-H23 lung
NCI-H460 lung = tested on: NCI-H460 lung
SK-MEL-28 melanoma = tested on: SK-MEL-28 melanoma
ACHN renal = tested on: ACHN renal
MCF7 breast = tested on: MCF7 breast
BT-549 breast = tested on: BT-549 breast
NCI-H522 lung = tested on: NCI-H522 lung
CAKI-1 renal = tested on: CAKI-1 renal
RXF 393 renal = tested on: RXF 393 renal
HCT-15 colon = tested on: HCT-15 colon
SF-295 CNS = tested on: SF-295 CNS
M14 melanoma = tested on: M14 melanoma
MDA-MB-435 = tested on: MDA-MB-435
A498 renal = tested on: A498 renal
SW-620 colon = tested on: SW-620 colon
786-0 renal = tested on: 786-0 renal
MDA-MB-231 breast = tested on: MDA-MB-231 breast
COLO 205 colon = tested on: COLO 205 colon
NCI-H226 lung = tested on: NCI-H226 lung
HS 578T breast = tested on: HS 578T breast
HL-60(TB) leukemia = tested on: HL-60(TB) leukemia
NCI/ADR-RES ovarian = tested on: NCI/ADR-RES ovarian
MDA-N = tested on: MDA-N
SF-268 CNS = tested on: SF-268 CNS
DU-145 prostate = tested on: DU-145 prostate
SR leukemia = tested on: SR leukemia
TK-10 renal = tested on: TK-10 renal
UO-31 renal = tested on: UO-31 renal
KM12 colon = tested on: KM12 colon
A549 NSCLC = tested on: A549 NSCLC
HCT-116 colon = tested on: HCT-116 colon
K-562 leukemia = tested on: K-562 leukemia
HOP-92 NSCLC = tested on: HOP-92 NSCLC
SNB-75 CNS = tested on: SNB-75 CNS
MALME-3M melanoma = tested on: MALME-3M melanoma
OVCAR-4 ovarian = tested on: OVCAR-4 ovarian
SK-OV-3 ovarian = tested on: SK-OV-3 ovarian
OVCAR-8 ovarian = tested on: OVCAR-8 ovarian

## CCCC(=O)Nc1cc(C(=O)N2C[C@H]3C[C@@]34C2=CC(=O)c2[nH]cc(C)c24)n(COC)c1
HOP-62 NSCLC
  GI50: 0.104 µM
OVCAR-5 ovarian
  TGI: 50 µM
UACC-62 melanoma
  GI50: 0.144 µM
  TGI: 0.911 µM and 0.289 µM
SN12C renal
  GI50: 0.168 µM
  TGI: 4.18 µM and 0.684 µM
SK-MEL-2 melanoma
  GI50: 0.13 µM
UACC-257 melanoma
  TGI: 0.833 µM
SNB-19 CNS
  GI50: 0.326 µM
  TGI: 29.1 µM and 13 µM
CCRF-CEM leukemia
  TGI: 0.105 µM and 0.245 µM
HCC-2998 colon
  GI50: 0.14 µM
  TGI: 0.361 µM and 0.336 µM
OVCAR-3 ovarian
  TGI: 0.688 µM
RPMI-8226 leukemia
  GI50: 0.176 µM
  TGI: 2.84 µM and 0.776 µM
PC-3 prostate
  GI50: 0.147 µM
SF-539 CNS
  GI50: 0.118 µM
HT29 colon
  GI50: 0.296 µM
  TGI: 4.47 µM and 20.5 µM
T-47D breast
  TGI: 1.49 µM
EKVX NSCLC
  GI50: 0.421 µM
  TGI: 3.37 µM and 2.29 µM
NCI-H23 lung
  GI50: 0.0328 µM
  TGI: 0.452 µM and 0.213 µM
NCI-H460 lung
  GI50: 0.135 µM
SK-MEL-28 melanoma
  TGI: 1.28 µM
ACHN renal
  GI50: 0.0888 µM
  TGI: 2.5 µM and 0.342 µM
MCF7 breast
  GI50: 0.0139 µM
  TGI: 6.32 µM and 0.661 µM
BT-549 breast
  GI50: 0.159 µM
NCI-H522 lung
  GI50: 0.0115 µM
  TGI: 0.261 µM and 0.117 µM
CAKI-1 renal
  GI50: 0.175 µM
  TGI: 1.03 µM and 0.52 µM
RXF 393 renal
  GI50: 0.106 µM
HCT-15 colon
  GI50: 0.242 µM
  TGI: 17.8 µM and 2.31 µM
SF-295 CNS
  GI50: 0.229 µM
M14 melanoma
  GI50: 0.167 µM
MDA-MB-435
  TGI: 1.6 µM and 0.537 µM
A498 renal
  GI50: 0.22 µM
  TGI: 1.7 µM and 0.758 µM
SW-620 colon
  GI50: 0.184 µM
  TGI: 82.2 µM
786-0 renal
  TGI: 5.82 µM
MDA-MB-231 breast
  TGI: 3 µM
COLO 205 colon
  GI50: 0.119 µM
  TGI: 1.14 µM and 0.261 µM
NCI-H226 lung
  TGI: 5.18 µM
HS 578T breast
  GI50: 0.267 µM
  TGI: 2.88 µM and 0.989 µM
HL-60(TB) leukemia
  TGI: 0.23 µM
NCI/ADR-RES ovarian
  GI50: 1.17 µM
  TGI: 2.73 µM and 4.64 µM
MDA-N
  GI50: 0.164 µM
  TGI: 1.59 µM and 0.316 µM
SF-268 CNS
  GI50: 0.0847 µM
  TGI: 1.5 µM and 11.1 µM
DU-145 prostate
  GI50: 0.0776 µM
SR leukemia
  TGI: 0.0236 µM
TK-10 renal
  TGI: 2.87 µM
UO-31 renal
  GI50: 0.561 µM
  TGI: 3.64 µM
KM12 colon
  GI50: 0.282 µM
  TGI: 2.29 µM and 14.7 µM
A549 NSCLC
  GI50: 1.2 µM
  TGI: 50 µM and 12.8 µM
HCT-116 colon
  TGI: 7.27 µM
K-562 leukemia
  GI50: 0.0925 µM
  TGI: 50 µM and 18.8 µM
HOP-92 NSCLC
  GI50: 0.291 µM
  TGI: 2.64 µM and 0.728 µM
SNB-75 CNS
  TGI: 1.45 µM and 0.718 µM
MALME-3M melanoma
  TGI: 0.439 µM
OVCAR-4 ovarian
  GI50: 0.239 µM
  TGI: 4.76 µM and 0.626 µM
SK-OV-3 ovarian
  TGI: 5.36 µM
OVCAR-8 ovarian
  GI50: 0.13 µM
  TGI: 0.343 µM and 0.392 µM
